ChEMBL document CHEMBL3352157, “1,2,4-triazolo[1,5-a]quinoxaline derivatives and their simplified analogues as adenosine A₃ receptor antagonists. Synthesis, structure-affinity relationships and molecular modeling studies” (Bioorg Med Chem, 2015)
Active and inactive are the calls of the source. The calls are words filed in the database; no cut-off is given here.

Key:
Adenosine receptor A2a [1] = molecular target: T1, Adenosine receptor A2a (Homo sapiens, UniProt P29274); test: Displacement of [3H]NECA from human adenosine A2A receptor expressed in CHO cells at 10 uM; assay type: cell-based
T1 sequence (P29274 whole entry): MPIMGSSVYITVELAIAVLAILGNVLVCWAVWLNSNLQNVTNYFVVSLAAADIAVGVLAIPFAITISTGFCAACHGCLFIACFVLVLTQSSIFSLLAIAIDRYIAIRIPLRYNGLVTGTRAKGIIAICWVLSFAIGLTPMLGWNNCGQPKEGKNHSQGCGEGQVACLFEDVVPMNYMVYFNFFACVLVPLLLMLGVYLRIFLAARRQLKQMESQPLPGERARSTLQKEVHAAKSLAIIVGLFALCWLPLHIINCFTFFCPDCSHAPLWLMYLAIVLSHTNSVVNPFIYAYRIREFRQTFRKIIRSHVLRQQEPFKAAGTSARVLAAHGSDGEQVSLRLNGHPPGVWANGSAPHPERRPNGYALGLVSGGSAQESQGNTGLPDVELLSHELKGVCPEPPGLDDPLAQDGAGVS

[2] = molecular target: T2, Adenosine receptor A1 (Homo sapiens) (UniProt P30542); test: Displacement of [3H]DPCPX from human adenosine A1 receptor expressed in CHO cells at 10 uM; assay type: cell-based
T2 sequence (whole entry): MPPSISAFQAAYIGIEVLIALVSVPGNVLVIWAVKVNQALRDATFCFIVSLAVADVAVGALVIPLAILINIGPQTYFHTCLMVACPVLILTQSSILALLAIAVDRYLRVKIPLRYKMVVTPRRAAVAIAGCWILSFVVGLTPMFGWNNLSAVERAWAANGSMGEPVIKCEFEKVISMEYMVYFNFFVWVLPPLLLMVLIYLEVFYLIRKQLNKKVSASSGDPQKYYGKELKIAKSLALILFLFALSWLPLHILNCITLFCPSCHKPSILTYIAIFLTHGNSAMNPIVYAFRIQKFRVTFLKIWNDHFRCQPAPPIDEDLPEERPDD

[3] = molecular target: T3, Adenosine receptor A3 (Homo sapiens) (UniProt P0DMS8); test: Displacement of [125I]AB-MECA from human adenosine A3 receptor expressed in CHO cells at 1 uM; assay type: cell-based
T3 sequence (whole entry): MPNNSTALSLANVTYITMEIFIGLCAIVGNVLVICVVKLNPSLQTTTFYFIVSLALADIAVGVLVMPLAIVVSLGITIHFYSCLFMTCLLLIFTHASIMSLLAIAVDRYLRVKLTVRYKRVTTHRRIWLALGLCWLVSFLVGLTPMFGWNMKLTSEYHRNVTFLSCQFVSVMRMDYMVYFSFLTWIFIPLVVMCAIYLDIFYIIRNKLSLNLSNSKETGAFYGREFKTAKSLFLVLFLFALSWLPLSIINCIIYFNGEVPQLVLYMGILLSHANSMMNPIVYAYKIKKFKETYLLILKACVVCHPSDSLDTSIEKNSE

[4] = molecular target: T4, Adenosine receptor A2b (Homo sapiens) (UniProt P29275); test: Agonist activity at human recombinant adenosine A2B receptor expressed in CHO cells assessed as cAMP accumulation at 10 uM after 15 mins by liquid scintillation counting analysis; assay type: functional, cell-based
T4 sequence (whole entry): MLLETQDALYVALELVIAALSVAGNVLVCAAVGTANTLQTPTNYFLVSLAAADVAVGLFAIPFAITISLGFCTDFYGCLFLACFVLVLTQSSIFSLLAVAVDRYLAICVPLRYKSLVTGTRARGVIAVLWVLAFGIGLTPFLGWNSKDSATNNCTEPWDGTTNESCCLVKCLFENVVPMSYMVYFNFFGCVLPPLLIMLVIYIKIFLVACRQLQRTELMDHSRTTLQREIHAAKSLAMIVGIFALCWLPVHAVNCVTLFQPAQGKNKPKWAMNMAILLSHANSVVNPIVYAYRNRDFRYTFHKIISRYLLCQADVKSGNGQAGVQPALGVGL

[5] = molecular target: T4, Adenosine receptor A2b (Homo sapiens); test: Antagonist activity at human recombinant adenosine A2B receptor expressed in CHO cells assessed as inhibition of NECA-induced cAMP accumulation measured as cAMP level at 10 uM incubated for 15 mins prior to NECA challenge measured after 30 mins by liquid scintillation counting analysis relative to control; assay type: functional, cell-based; parameters: scale not given: the % may be the effect or the level left
Adenosine receptor A1 = molecular target: T5, Adenosine receptor A1 (Homo sapiens, UniProt P30542); test: Displacement of [3H]DPCPX from human adenosine A1 receptor expressed in CHO cells; assay type: cell-based
T5 sequence (P30542 whole entry): T2 sequence (whole entry)

Adenosine receptor A3 = molecular target: T6, Adenosine receptor A3 (Homo sapiens, UniProt P0DMS8); test: Displacement of [125I]AB-MECA from human adenosine A3 receptor expressed in CHO cells; assay type: cell-based
T6 sequence (P0DMS8 whole entry): T3 sequence (whole entry)

Adenosine receptor A2a [6] = molecular target: T1, Adenosine receptor A2a; test: Displacement of [3H]NECA from human adenosine A2A receptor expressed in CHO cells; assay type: cell-based

Work on `COc1ccc(-c2nc(NC(=O)c3ccccc3)n(-c3ccccc3)n2)cc1` yielded an inhibition (Adenosine receptor A2a [1]) of 43%, an inhibition [2] of 25% and an inhibition [3] of 50%.
`C#CCOC(=O)Nc1ccc(C)cc1-n1cnc(-c2ccc(OC)cc2)n1` gave an inhibition (Adenosine receptor A2a [1]) of 16% and an inhibition [3] of 35%.
In the case of `CCC(=O)N1Cc2nc(-c3ccc(OC)cc3)nn2-c2cc(C)ccc21`, the Activity [4] is reported as “inactive”, the inhibition (Adenosine receptor A2a [1]) is reported as 6% and the Activity [5] is reported as 102%. For the same molecule, the Ki (Adenosine receptor A1) was 1540 nM and the Ki (Adenosine receptor A3) was 25.1 nM.
Work on `COc1ccc(-c2ncn(-c3cc(C)ccc3NC(=O)Cc3ccccc3)n2)cc1` yielded an inhibition (Adenosine receptor A2a [1]) of 1%, an inhibition [2] of 44% and an inhibition [3] of 45%.
With `COC(=O)N1Cc2nc(-c3ccccc3)nn2-c2ccccc21` the inhibition (Adenosine receptor A2a [1]) was 50%, the inhibition [2] was 34% and the Ki (Adenosine receptor A3) was 245 nM.
In the case of `CCC(=O)N1Cc2nc(-c3ccccc3)nn2-c2cc(Cl)ccc21`, the Activity [4] is reported as “inactive”, the inhibition (Adenosine receptor A2a [1]) is reported as 24% and the inhibition [2] is reported as 39%. For the same molecule, the Activity [5] was 63.7% and the Ki (Adenosine receptor A3) was 72 nM.
With `COc1ccc(-c2nc(NC(=O)Nc3ccccc3)n(-c3ccccc3)n2)cc1` the inhibition (Adenosine receptor A2a [1]) was 7%, the inhibition [2] was 1% and the Ki (Adenosine receptor A3) was 545 nM.
For `COC(=O)N1Cc2nc(-c3ccccc3)nn2-c2cc(C)ccc21`, the Activity [4] was “inactive”, the inhibition (Adenosine receptor A2a [1]) was 32% and the Activity [5] was 74.9%. For the same molecule, the Ki (Adenosine receptor A1) was 1480 nM and the Ki (Adenosine receptor A3) was 31.9 nM.
Molecule `CCCOC(=O)N1Cc2nc(-c3ccccc3)nn2-c2cc(C)ccc21` has an inhibition (Adenosine receptor A2a [1]) of 56%, a Ki (Adenosine receptor A1) of 565 nM and a Ki (Adenosine receptor A3) of 171 nM.
`COc1ccc(-c2nc3n(n2)-c2cc(C)ccc2N(C(=O)OCc2ccccc2)C3)cc1` was tested, and the inhibition (Adenosine receptor A2a [1]) was 4%, the inhibition [2] was 45% and the Ki (Adenosine receptor A3) was 231 nM.
With `CCOC(=O)N1Cc2nc(-c3ccccc3)nn2-c2cc(C)ccc21` the Activity [4] was “inactive”, the inhibition (Adenosine receptor A2a [1]) was 9% and the Activity [5] was 104%. The Ki (Adenosine receptor A1) was 556 nM and the Ki (Adenosine receptor A3) was 12.5 nM.
Work on `COc1ccc(-c2nc(N(C(=O)c3ccccc3)C(=O)c3ccccc3)n(-c3ccccc3)n2)cc1` yielded an inhibition (Adenosine receptor A2a [1]) of 13%, an inhibition [2] of 55% and an inhibition [3] of 44%.
Work on `CCOC(=O)N1Cc2nc(-c3ccccc3)nn2-c2cc(Cl)ccc21` yielded a Ki (Adenosine receptor A3) of 166 nM.
`Clc1ccc2ncc3nc(-c4ccccc4)nn3c2c1` showed an inhibition (Adenosine receptor A2a [1]) of 19%, a Ki (Adenosine receptor A1) of 127 nM and a Ki (Adenosine receptor A3) of 15.2 nM.
With `COc1ccc(-c2nc3n(n2)-c2cc(C)ccc2N(C(=O)Cc2ccccc2)C3)cc1` the Activity [4] was “inactive”, the inhibition (Adenosine receptor A2a [1]) was 0% and the inhibition [2] was 39%. The Activity [5] was 89.5% and the Ki (Adenosine receptor A3) was 54.8 nM.
For `COc1ccc(-c2nc3cnc4ccc(C)cc4n3n2)cc1`, the Activity [4] was “inactive”, the inhibition (Adenosine receptor A2a [1]) was 30% and the Activity [5] was 42.6%. For the same molecule, the Ki (Adenosine receptor A1) was 2020 nM and the Ki (Adenosine receptor A3) was 26.6 nM.
`CCOC(=O)Nc1ccc(C)cc1-n1cnc(-c2ccc(OC)cc2)n1` gave an inhibition (Adenosine receptor A2a [1]) of 13%, an inhibition [2] of 6% and an inhibition [3] of 34%.
Molecule `CCOC(=O)N1Cc2nc(-c3ccc(OC)cc3)nn2-c2cc(C)ccc21` has an inhibition (Adenosine receptor A2a [1]) of 2%, a Ki (Adenosine receptor A1) of 86 nM and a Ki (Adenosine receptor A3) of 39.4 nM.
For `Cc1ccc2ncc3nc(-c4ccccc4)nn3c2c1`, the Ki (Adenosine receptor A2a [6]) was 2400 nM, the Ki (Adenosine receptor A1) was 1320 nM and the Ki (Adenosine receptor A3) was 23.9 nM.
With `c1ccc(-c2nc3cnc4ccccc4n3n2)cc1` the Ki (Adenosine receptor A3) was 91.5 nM.
For `C#CCOC(=O)N1Cc2nc(-c3ccc(OC)cc3)nn2-c2cc(C)ccc21`, the Activity [4] was “inactive”, the inhibition (Adenosine receptor A2a [1]) was 13% and the inhibition [2] was 49%. It also gave an Activity [5] of 109% and a Ki (Adenosine receptor A3) of 23.3 nM.
With `CCC(=O)N1Cc2nc(-c3ccccc3)nn2-c2ccccc21` the inhibition (Adenosine receptor A2a [1]) was 52%, the Ki (Adenosine receptor A1) was 1360 nM and the inhibition [3] was 55%.
Work on `COc1ccc(-c2nc(N(C(C)=O)C(C)=O)n(-c3ccccc3)n2)cc1` yielded an inhibition (Adenosine receptor A2a [1]) of 4%, an inhibition [2] of 26% and an inhibition [3] of 19%.
`COc1ccc(-c2ncn(-c3cc(C)ccc3NC(=O)OCc3ccccc3)n2)cc1` gave an inhibition (Adenosine receptor A2a [1]) of 7%, an inhibition [2] of 2% and an inhibition [3] of 47%.
In the case of `CCC(=O)N1Cc2nc(-c3ccccc3)nn2-c2cc(C)ccc21`, the Activity [4] is reported as “inactive”, the inhibition (Adenosine receptor A2a [1]) is reported as 33% and the Activity [5] is reported as 68.6%. For the same molecule, the Ki (Adenosine receptor A1) was 134 nM and the Ki (Adenosine receptor A3) was 6.5 nM.
Molecule `CCOC(=O)N1Cc2nc(-c3ccccc3)nn2-c2ccccc21` has an inhibition (Adenosine receptor A2a [1]) of 33%, a Ki (Adenosine receptor A1) of 4600 nM and an inhibition [3] of 22%.
